In patent publication US20250282790A1 (Temple University-Of The Commonwealth System of Higher …, priority 2016, published 2025):

target: 5HT7 receptors (Homo sapiens (Human), UniProt P34969); experiment: Radiolabel Binding Studies for Serotonin 5-HT7 Receptors, Method 2 ([3H]-5HT competition; Ki and percent inhibition at 10 μM); conditions: radioligand competition binding
Description: Radiolabel Binding Studies for Serotonin 5-HT7 Receptors, Method 2:
A solution of the compound of the disclosure to be tested is prepared as a 1-mg/ml stock in Assay Buffer or DMSO according to its solubility. A similar stock of the reference compound chlorpromazine is also prepared as a positive control. Eleven dilutions (5×assay concentration) of the compound of the disclosure and chlorpromazine are prepared in the Assay Buffer by serial dilution to yield final corresponding assay concentrations ranging from 10 pM to 10 μM.
A stock concentration of 5 nM [^3H]-5-Hydroxytryptamine ([^3H]-5HT) is prepared in 50 mM Tris-HCl, 10 mM MgCl2, 1 mM EDTA, pH 7.4 (Assay Buffer). Aliquots (50 μl) of radioligand are dispensed into the wells of a 96-well plate containing 100 μl of Assay Buffer. Duplicate 50-μl aliquots of the compound of the disclosure test and chlorpromazine positive control reference compound serial dilutions are added.
Membrane fractions of cells expressing recombinant 5HT7 receptors (50 L) are dispensed into each well. The membranes are prepared from stably transfected cell lines expressing 5HT7 receptors cultured on 10-cm plates by harvesting PBS-rinsed monolayers, resuspending and lysing in chilled, hypotonic 50 mM Tris-HCl, pH 7.4, centrifuging at 20,000×g, decanting the supernatant and storing at −80° C.; the membrane preparations are resuspended in 3 ml of chilled Assay Buffer and homogenized by several passages through a 26 gauge needle before using in the assay.
The 250-μl reactions are incubated at room temperature for 1.5 hours, then harvested by rapid filtration onto 0.3% polyethyleneimine-treated, 96-well filter mats using a 96-well Filtermate harvester. Four rapid 500-μl washes are performed with chilled Assay Buffer to reduce non-specific binding. The filter mats are dried, then scintillant is added to the filters and the radioactivity retained on the filters is counted in a Microbeta scintillation counter.
Raw data (dpm) representing total radioligand binding (i.e., specific+non-specific binding) are plotted as a function of the logarithm of the molar concentration of the competitor (i.e., test or reference compound). Non-linear regression of the normalized (i.e., percent radioligand binding compared to that observed in the absence of test or reference compound) raw data is performed in Prism 4.0 (GraphPad Software) using the built-in three parameter logistic model describing ligand competition binding to radioligand-labeled sites:
where bottom equals the residual radioligand binding measured in the presence of 10 μM reference compound (i.e., non-specific binding) and top equals the total radioligand binding observed in the absence of competitor. The log IC50 (i.e., the log of the ligand concentration that reduces radioligand binding by 50%) is thus estimated from the data and used to obtain the Ki by applying the Cheng-Prusoff approximation:
where [ligand] equals the assay radioligand concentration and KD equals the affinity constant of the radioligand for the target receptor.
Compounds of the disclosure are also screened at a single concentration of 10 μM using the same method described for the Radiolabel Binding Studies for Serotonin 5HT7 receptors to determine the percent inhibition of [^3H]-5HT binding.

Sequence of 5HT7 receptors (P34969 whole entry): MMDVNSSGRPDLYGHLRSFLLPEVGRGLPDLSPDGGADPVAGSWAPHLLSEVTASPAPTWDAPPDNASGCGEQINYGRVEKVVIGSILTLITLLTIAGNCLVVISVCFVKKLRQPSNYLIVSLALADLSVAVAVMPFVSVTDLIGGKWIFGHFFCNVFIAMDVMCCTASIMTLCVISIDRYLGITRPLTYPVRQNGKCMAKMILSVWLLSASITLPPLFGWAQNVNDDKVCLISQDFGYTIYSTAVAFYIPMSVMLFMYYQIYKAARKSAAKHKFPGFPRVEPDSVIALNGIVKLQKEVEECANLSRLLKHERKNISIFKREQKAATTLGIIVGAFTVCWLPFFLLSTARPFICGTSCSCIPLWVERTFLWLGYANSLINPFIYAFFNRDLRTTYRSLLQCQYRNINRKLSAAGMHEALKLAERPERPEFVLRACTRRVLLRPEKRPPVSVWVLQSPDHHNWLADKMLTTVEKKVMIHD

Q: For `Cc1ccc(N2CCN(CCC3CC4(CCN(Cc5ccccc5)CC4)C(=O)O3)CC2)cc1` (centres unmarked) [Entry 1], which IC50 is on record?
A: 0.018 µM

Q: With `Cc1ccc(N2CCN(CCC3CC4(CCNCC4)C(=O)O3)CC2)cc1` (centres unmarked) [Entry 2] as the molecule, how does the IC50 read?
A: 0.149 µM

Q: `COC(=O)N1CCC2(CC1)CC(CCN1CCN(c3ccc(C)cc3)CC1)OC2=O` (centres unmarked) [Entry 3] was tested. Which IC50 did it give?
A: 0.081 µM

Q: How did the IC50 turn out when `CC(=O)N1CCC2(CC1)CC(CCN1CCN(c3ccc(C)cc3)CC1)OC2=O` (centres unmarked) [Entry 4] was run?
A: 0.122 µM

Q: How did the IC50 turn out when `CNC(=O)N1CCC2(CC1)CC(CCN1CCN(c3ccc(C)cc3)CC1)OC2=O` (centres unmarked) [Entry 5] was run?
A: 0.102 µM

Q: For `Cc1ccc(N2CCN(CCC3CC4(CCN(S(C)(=O)=O)CC4)C(=O)O3)CC2)cc1` (centres unmarked) [Entry 6], which IC50 is on record?
A: 0.093 µM

Q: How did the IC50 turn out when `CS(=O)(=O)N1CCC2(CC1)CC(CCN1CCN(c3ccccc3N3CCOCC3)CC1)OC2=O` (centres unmarked) [Entry 7] was run?
A: 0.034 µM

Q: How did the IC50 turn out when `Cc1nc2cccc(N3CCN(CCC4CC5(CCN(S(C)(=O)=O)CC5)C(=O)O4)CC3)c2[nH]1` (centres unmarked) [Entry 8] was run?
A: 0.046 µM

Q: Which IC50 does the source give for `CS(=O)(=O)N1CCC2(CC1)CC(CCN1CCN(c3ccc(Cl)cc3)CC1)OC2=O` (centres unmarked) [Entry 9] here?
A: 0.303 µM

Q: With `Cc1ccc(N2CCN(CCC3CC4(CCN(S(=O)(=O)c5ccccc5)CC4)C(=O)O3)CC2)cc1` (centres unmarked) [Entry 10] as the molecule, how does the IC50 read?
A: 0.064 µM

Q: With `COc1ccc(S(=O)(=O)N2CCC3(CC2)CC(CCN2CCN(c4ccc(C)cc4)CC2)OC3=O)cc1` (centres unmarked) [Entry 11] as the molecule, how does the IC50 read?
A: 0.077 µM

Q: How did the IC50 turn out when `CS(=O)(=O)N1CCC2(CC1)CC(CCN1CCN(c3ccc(C#N)cc3N3CCOCC3)CC1)OC2=O` (centres unmarked) [Entry 19] was run?
A: 0.461 µM

Q: For `Cc1ccc(N2CCN(CCC3CC4(CCN(S(=O)(=O)c5ccc(Cl)cc5)CC4)C(=O)O3)CC2)cc1` (centres unmarked) [Example 12], which IC50 is on record?
A: 0.108 µM

Q: With `Cc1ccc(N2CCN(CCC3CC4(CCN(S(=O)(=O)C5CCOCC5)CC4)C(=O)O3)CC2)cc1` (centres unmarked) [Example 13] as the molecule, how does the IC50 read?
A: 0.096 µM

Q: `Cc1ccc(N2CCN(CCC3CC4(CCN(S(C)(=O)=O)CC4)C(=O)O3)CC2)c(N2CCOCC2)c1` (centres unmarked) [Example 20] was tested. Which IC50 did it give?
A: 0.067 µM

Q: How did the IC50 turn out when `CS(=O)(=O)N1CCC2(CC1)CC(CCN1CCN(c3ccc(O)cc3N3CCOCC3)CC1)OC2=O` (centres unmarked) [Example 21] was run?
A: 0.075 µM

Q: `CS(=O)(=O)N1CCC2(CC1)CC(CCN1CCN(c3ccc(O)cc3)CC1)OC2=O` (centres unmarked) [Example 22] was tested. Which IC50 did it give?
A: 0.202 µM
